Assays:
[1] = tested on: Pectinase (EC 3.2.1.15); experiment: Pectinase/Pectin reaction gas run (spectrophotometric, 400 nm); assay type: biochemical, Aspergillus niger; conditions: maximum effect, percent change compared to air
Experimental: PECTINASE (EC 3.2.1.15) (P-9932)/PECTIN (P-9135) GAS RUN PROTOCOL
PURPOSE: Effect of Air, Ne, Ar, Kr, Xe, N2 and O2 on Pectinase/Pectin reaction at 10° C., 25° C. and 35° C. (one substrate concentration).
ENZYME: Pectinase (Sigma No. P-9932) from Aspergillus niger Solution in 25-45% glycerol (actual glycerol content on label)
Unit Definition: one unit will liberate 1.0 μmole of galacturonic acid from polygalacturonic acid per min at pH 4.0 at 25° C.
SUBSTRATE: Pectin (Sigma No. P-9135) from Citrus fruits
Soln A: 0.1 M Citric acid--sodium citrate, pH 4.0 at 25° C. Dissolve 7.6 g citric acid and 12.05 g sodium citrate in 1 liter of DI H2 O. Adjust pH to 4.0. pH25° C. =4.013
Soln B: 1% Pectin in DI H2 O Boil 100 ml DI H2 O. Add 1 g pectin, stir by hand. Cover, boil for 2 minutes, stir by hand, boil for an additional 1 minute. Remove from heat and let cool for 10 minutes.
Soln C: Pectinase (50 U/ml) in Soln A Dilute 43.5 ml Pectinase to 50 ml with Soln A. Store in an amber bottle and refrigerate.
R=2.0 ml Soln B+0.5 ml Soln A
Fill the cuvettes with 2.0 ml of Soln B with a 1 cc syringe.
Fill 8 serum vials with 5.0 ml of Soln C Stopper and crimp to effect a gas tight system.
(§1) Bubble 4×30 cc of the appropriate gas in T1G1 . . . 5 cuvettes. Refrigerate under 2×10 cc of the appropriate gas. Keep refrigerated at least 15 minutes before running.
Remove G1 . . . 5 serum vials from fridge. Sample Soln C with 1 cc syringes previously filled with the appropriate gas. Slide the syringes/needle through the silicone but not into the liquid layer, simultaneously push plungers into the liquid and push the plungers simultaneously, THEN IT WILL BE NECESSARY TO PULL AND PUSH PLUNGER FOUR TIMES TO EFFECT MIXING OF THE SUBSTRATE AND ENZYME IN THE CUVETTES, run timedrives.
(§2) Bubble 4×30 cc of the appropriate gas in T2G1 . . . 5 cuvettes. Refrigerate under 2×10 cc of the appropriate gas. Keep refrigerated at least 15 minutes before running.
(§3) Bubble 4×30 cc of the appropriate gas in T3G1 . . . 5 cuvettes. Refrigerate under 2×10 cc of the appropriate gas. Keep refrigerated at least 15 minutes before running.

[2] = tested on: Pectinesterase (EC 3.1.1.11); experiment: Pectinesterase/p-Nitrophenyl acetate reaction gas run (spectrophotometric, 400 nm); assay type: biochemical, Orange Peel; conditions: maximum effect, percent change compared to air
Experimental: PECTINESTERASE (P-5400)/p-NITROPHENYL ACETATE (N-8130) GAS RUN PROTOCOL
PURPOSE: Effect of Air, Ne, Ar, Kr, Xe, N2 and 02 on Pectinesterase/p-Nitrophenyl acetate reaction at 10° C., 25° C. and 35° C. (one substrate concentration).
ENZYME: Pectinesterase P-5400
Unit definition: one unit will release 1 μequivalent of acid from pectin per min at pH 7.5 at 30° C.
SUBSTRATE: p-Nitrophenyl acetate N-8130
Soln A: 0.1 M Citric acid--Na2 HPO4 buffer, pH 7.5 25° C.
Soln B: 50 mM Methanolic p-Nitrophenyl acetate (N-8130)
Soln C: p-Nitrophenyl acetate in Soln A
Soln D: Pectinesterase (100 Units/ml) in Soln A
R=2.0 ml Soln C+0.5 ml Soln A
Fill the cuvettes with 2.0 ml of Soln C with a 1 cc syringe.
Fill 8 serum vials with 5.0 ml of Soln D. Stopper and crimp to effect a gas tight system.
as §1
Remove G1 . . . 5 serum vials from fridge. Sample Soln D with 1 cc syringes previously filled with the appropriate gas. Slide the syringes/needle through the silicone but not into the liquid layer, simultaneously push plungers into the liquid and push the plungers simultaneously, run timedrives.
as §2, §3

Pectinase % Rate Difference ([1]; 25° C.) [%]	Pectinase % Rate Difference ([1]; 35° C.) [%]	Pectinase % Yield Difference ([1]; 35° C.) [%]	Pectinesterase % Rate Difference ([2]; 10° C.) [%]	Pectinesterase % Rate Difference ([2]; 25° C.) [%]	Pectinesterase % Yield Difference ([2]; 25° C.) [%]	Pectinesterase % Rate Difference ([2]; 35° C.) [%]	Pectinesterase % Yield Difference ([2]; 35° C.) [%]	SMILES
6.4	18.3	8.0	5.0	17.7	2.1	0.8	0.70	[Ar] [Ar, argon]
0.0	15.0	7.0	29.0	2.0	0.70	3.3	0.0	[Xe] [Xe, xenon]
4.3	3.3	3.3	19.4	0.0	0.37	1.6	1.4	[Ne] [Ne, neon]
2.1	6.7	1.4	32.3	29.4	8.3	0.8	2.1	[Kr] [Kr, krypton]

— patent US6309679A, “Method of improving processes using pectinase enzymes with noble gases” (American Air Liquide, priority 1995, dated 2001)
